Experimental data as given in PubChem BioAssay (NCI).
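Assay format: 96-well plates, 48-hour exposure. GI50 marks 50% less growth. At the TGI there is no net growth.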

Tests used:
Assay in all cases: DTP human tumour cell line panel, 48 h
[1] = tested on: RXF 393 renal
[2] = tested on: ACHN renal
[3] = tested on: NCI-H460 lung
[4] = tested on: MALME-3M melanoma
[5] = tested on: BT-549 breast
[6] = tested on: EKVX NSCLC
[7] = tested on: SK-OV-3 ovarian
[8] = tested on: HCT-116 colon
[9] = tested on: OVCAR-4 ovarian
[10] = tested on: SR leukemia
[11] = tested on: RPMI-8226 leukemia
[12] = tested on: SW-620 colon
[13] = tested on: DU-145 prostate
[14] = tested on: TK-10 renal
[15] = tested on: SN12C renal
[16] = tested on: HT29 colon
[17] = tested on: M14 melanoma
[18] = tested on: OVCAR-8 ovarian
[19] = tested on: HCC-2998 colon
[20] = tested on: K-562 leukemia
[21] = tested on: SF-539 CNS
[22] = tested on: PC-3 prostate
[23] = tested on: HL-60(TB) leukemia
[24] = tested on: SF-268 CNS
[25] = tested on: UACC-257 melanoma
[26] = tested on: CCRF-CEM leukemia
[27] = tested on: SNB-75 CNS
[28] = tested on: IGROV1 ovarian
[29] = tested on: U251 CNS
[30] = tested on: HOP-92 NSCLC
[31] = tested on: CAKI-1 renal
[32] = tested on: SK-MEL-2 melanoma
[33] = tested on: NCI-H226 lung
[34] = tested on: SK-MEL-28 melanoma
[35] = tested on: NCI/ADR-RES ovarian
[36] = tested on: COLO 205 colon
[37] = tested on: A549 NSCLC
[38] = tested on: A498 renal
[39] = tested on: OVCAR-5 ovarian
[40] = tested on: MDA-MB-231 breast
[41] = tested on: SF-295 CNS
[42] = tested on: MDA-MB-435
[43] = tested on: KM12 colon
[44] = tested on: UO-31 renal
[45] = tested on: MOLT-4 leukemia
[46] = tested on: SK-MEL-5 melanoma
[47] = tested on: HCT-15 colon
[48] = tested on: HS 578T breast
[49] = tested on: LOX IMVI melanoma
[50] = tested on: T-47D breast
[51] = tested on: UACC-62 melanoma
[52] = tested on: 786-0 renal
[53] = tested on: HOP-62 NSCLC
[54] = tested on: NCI-H522 lung
[55] = tested on: SNB-19 CNS
[56] = tested on: MCF7 breast

**Q.** Which results are given for CN(C)CCN(C)c1ccc2ncc(C#Cc3cncc(C(=O)Nc4ccc(CN5CCN(C)CC5)c(C(F)(F)F)c4)c3)n2n1?
**A.** GI50 [1]: 0.876 µM; TGI [1]: 1.63 µM; GI50 [2]: 2.51 µM; TGI [2]: 8.72 µM; GI50 [3]: 0.891 µM; TGI [3]: 1.69 µM; GI50 [4]: 2.7 µM; TGI [4]: 9.71 µM; GI50 [5]: 3.37 µM; TGI [5]: 9.44 µM; GI50 [6]: 4.81 µM; TGI [6]: 11.2 µM; GI50 [7]: 8.01 µM; TGI [7]: 15 µM; GI50 [8]: 1.57 µM; TGI [8]: 6.96 µM; GI50 [9]: 0.933 µM; TGI [9]: 2.75 µM; GI50 [10]: 0.614 µM; TGI [10]: 1.63 µM; GI50 [11]: 0.955 µM; TGI [11]: 2.16 µM; GI50 [12]: 0.949 µM; TGI [12]: 2.27 µM; GI50 [13]: 3.54 µM; TGI [13]: 9.9 µM; GI50 [14]: 12.1 µM; TGI [14]: 19.5 µM; GI50 [15]: 2.23 µM; TGI [15]: 7.79 µM; GI50 [16]: 0.822 µM; TGI [16]: 1.91 µM; GI50 [17]: 0.854 µM; TGI [17]: 1.71 µM; GI50 [18]: 1.95 µM; TGI [18]: 7.06 µM; GI50 [19]: 1 µM; TGI [19]: 2.08 µM; GI50 [20]: 0.0227 µM; TGI [20]: 0.787 µM; GI50 [21]: 0.615 µM; TGI [21]: 1.32 µM; GI50 [22]: 5.07 µM; TGI [22]: 11.2 µM; GI50 [23]: 1.28 µM; TGI [23]: 2.39 µM; GI50 [24]: 5.58 µM; TGI [24]: 13.3 µM; GI50 [25]: 6.04 µM; TGI [25]: 12.3 µM; GI50 [26]: 1.08 µM; TGI [26]: 2.91 µM; GI50 [27]: 0.879 µM; TGI [27]: 6.57 µM; GI50 [28]: 1.59 µM; TGI [28]: 5.7 µM; GI50 [29]: 0.883 µM; TGI [29]: 1.78 µM; GI50 [30]: 1.71 µM; TGI [30]: 8.31 µM; GI50 [31]: 4 µM; TGI [31]: 10.4 µM; GI50 [32]: 6.09 µM; TGI [32]: 12.5 µM; GI50 [33]: 1.23 µM; TGI [33]: 8.28 µM; GI50 [34]: 7.58 µM; TGI [34]: 14.3 µM; GI50 [35]: 2.13 µM; TGI [35]: 7.8 µM; GI50 [36]: 1.21 µM; TGI [36]: 6.51 µM; GI50 [37]: 0.947 µM; TGI [37]: 2.15 µM; GI50 [38]: 6.05 µM; TGI [38]: 12.2 µM; GI50 [39]: 6.21 µM; TGI [39]: 12.9 µM; GI50 [40]: 0.889 µM; TGI [40]: 2.17 µM; GI50 [41]: 0.801 µM; TGI [41]: 1.76 µM; GI50 [42]: 2.17 µM; TGI [42]: 8.72 µM; GI50 [43]: 0.386 µM; TGI [43]: 4.66 µM; GI50 [44]: 6.05 µM; TGI [44]: 12.4 µM; GI50 [45]: 0.863 µM; TGI [45]: 2.62 µM; GI50 [46]: 5.08 µM; TGI [46]: 10.9 µM; GI50 [47]: 1.14 µM; TGI [47]: 3.14 µM; GI50 [48]: 1.68 µM; TGI [48]: 9.75 µM; GI50 [49]: 0.75 µM; TGI [49]: 1.42 µM; GI50 [50]: 7.83 µM; TGI [50]: 15.5 µM; GI50 [51]: 8.21 µM; TGI [51]: 15.7 µM; GI50 [52]: 6.9 µM; TGI [52]: 13.5 µM; GI50 [53]: 3.98 µM; TGI [53]: 10.4 µM; GI50 [54]: 5.08 µM; TGI [54]: 11.8 µM; GI50 [55]: 4.75 µM; TGI [55]: 10.8 µM; GI50 [56]: 0.564 µM; TGI [56]: 1.47 µM
